Test results reported in PubChem BioAssay AID2060486 (Molecular Pharmacology Branch, DTP, NCI, 2025).

System: IGROV1 complex spheroids (HUVEC, MSC), viability % test/control
Test: Anticancer human tumor IGROV1 cell line growth inhibition [GQUAD];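 also: spheroids exposed to compounds for 7 days before readout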;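 as to viability, T/C: 100% = DMSO vehicle control viability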
Conditions: for IC50: curve of first compound; for viability, T/C: stronger effect = lower value
In short: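 Multi-cell-type spheroids of tumor cells with HUVEC and mesenchymal stem cells, treated with drug combinations. Concentrations descend in half-log steps from near clinical Cmax, or from 10 microM where Cmax is unknown; viability read-out.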

[1] = second compound 0.0316 µM, first compound 0.0316 µM
[2] = second compound 0.0316 µM, first compound 0.1 µM
[3] = second compound 0.0316 µM, first compound 0.316 µM
[4] = second compound 0.0316 µM, first compound 1 µM
[5] = second compound 0.0316 µM, first compound 3.16 µM
[6] = second compound 0.0316 µM, first compound 10 µM
[7] = second compound 0.1 µM, first compound 0.0316 µM
[8] = second compound 0.1 µM, first compound 0.1 µM
[9] = second compound 0.1 µM, first compound 0.316 µM
[10] = second compound 0.1 µM, first compound 1 µM
[11] = second compound 0.1 µM, first compound 3.16 µM
[12] = second compound 0.1 µM, first compound 10 µM
[13] = second compound 0.316 µM, first compound 0.0316 µM
[14] = second compound 0.316 µM, first compound 0.1 µM
[15] = second compound 0.316 µM, first compound 0.316 µM
[16] = second compound 0.316 µM, first compound 1 µM
[17] = second compound 0.316 µM, first compound 3.16 µM
[18] = second compound 0.316 µM, first compound 10 µM
[19] = second compound 1 µM, first compound 0.0316 µM
[20] = second compound 1 µM, first compound 0.1 µM
[21] = second compound 1 µM, first compound 0.316 µM
[22] = second compound 1 µM, first compound 1 µM
[23] = second compound 1 µM, first compound 3.16 µM
[24] = second compound 1 µM, first compound 10 µM
[25] = second compound 3.16 µM, first compound 0.0316 µM
[26] = second compound 3.16 µM, first compound 0.1 µM
[27] = second compound 3.16 µM, first compound 0.316 µM
[28] = second compound 3.16 µM, first compound 1 µM
[29] = second compound 3.16 µM, first compound 3.16 µM
[30] = second compound 3.16 µM, first compound 10 µM
[31] = second compound 10 µM, first compound 0.0316 µM
[32] = second compound 10 µM, first compound 0.1 µM
[33] = second compound 10 µM, first compound 0.316 µM
[34] = second compound 10 µM, first compound 1 µM
[35] = second compound 10 µM, first compound 3.16 µM
[36] = second compound 10 µM, first compound 10 µM

SMILES: Nc1ccn(C2OC(CO)C(O)C2(F)F)c(=O)n1 (stereo not drawn) + Cc1cnc(CNC(=O)c2c(=O)c3ccc(N4CCCN(C)CC4)nc3n3c2sc2ccccc23)cn1
- IC50 (second compound 0.0316 µM): < 31.6 nM
- IC50 (second compound 0.1 µM): < 31.6 nM
- IC50 (second compound 0.316 µM): < 31.6 nM
- IC50 (second compound 1 µM): < 31.6 nM
- IC50 (second compound 3.16 µM): < 31.6 nM
- IC50 (second compound 10 µM): < 31.6 nM
- viability, T/C [1]: 10.5%
- viability, T/C [2]: 5.6%
- viability, T/C [3]: 5.15%
- viability, T/C [4]: 4.7%
- viability, T/C [5]: 4.99%
- viability, T/C [6]: 4.44%
- viability, T/C [7]: 12.7%
- viability, T/C [8]: 4.99%
- viability, T/C [9]: 8.19%
- viability, T/C [10]: 6.35%
- viability, T/C [11]: 5.18%
- viability, T/C [12]: 3.96%
- viability, T/C [13]: 11.5%
- viability, T/C [14]: 5.16%
- viability, T/C [15]: 5.92%
- viability, T/C [16]: 5.56%
- viability, T/C [17]: 4.85%
- viability, T/C [18]: 4.62%
- viability, T/C [19]: 11.1%
- viability, T/C [20]: 7%
- viability, T/C [21]: 6.75%
- viability, T/C [22]: 6.61%
- viability, T/C [23]: 4.42%
- viability, T/C [24]: 4.28%
- viability, T/C [25]: 6.61%
- viability, T/C [26]: 7.28%
- viability, T/C [27]: 6.54%
- viability, T/C [28]: 5.77%
- viability, T/C [29]: 5.25%
- viability, T/C [30]: 3.96%
- viability, T/C [31]: 9.97%
- viability, T/C [32]: 6.38%
- viability, T/C [33]: 5.25%
- viability, T/C [34]: 7.22%
- viability, T/C [35]: 5.43%
- viability, T/C [36]: 3.66%

SMILES: C#Cc1c(F)ccc2cc(O)cc(-c3ncc4c(N5CC6CCC(C5)N6)nc(OCC56CCCN5CC(F)C6)nc4c3F)c12 (stereo not drawn) + Cc1cnc(CNC(=O)c2c(=O)c3ccc(N4CCCN(C)CC4)nc3n3c2sc2ccccc23)cn1
- IC50 (second compound 0.0316 µM): 2820 nM
- IC50 (second compound 0.1 µM): < 31.6 nM
- IC50 (second compound 0.316 µM): < 31.6 nM
- IC50 (second compound 1 µM): < 31.6 nM
- IC50 (second compound 3.16 µM): < 31.6 nM
- IC50 (second compound 10 µM): < 31.6 nM
- viability, T/C [1]: 70%
- viability, T/C [2]: 67.6%
- viability, T/C [3]: 58.5%
- viability, T/C [4]: 56.4%
- viability, T/C [5]: 47.6%
- viability, T/C [6]: 45.3%
- viability, T/C [7]: 40.6%
- viability, T/C [8]: 41.9%
- viability, T/C [9]: 36.5%
- viability, T/C [10]: 27.3%
- viability, T/C [11]: 35.8%
- viability, T/C [12]: 17.3%
- viability, T/C [13]: 21.4%
- viability, T/C [14]: 21.5%
- viability, T/C [15]: 20.7%
- viability, T/C [16]: 24.7%
- viability, T/C [17]: 18.3%
- viability, T/C [18]: 15.1%
- viability, T/C [19]: 16.7%
- viability, T/C [20]: 16.4%
- viability, T/C [21]: 11.1%
- viability, T/C [22]: 13.3%
- viability, T/C [23]: 14.5%
- viability, T/C [24]: 7.91%
- viability, T/C [25]: 9.65%
- viability, T/C [26]: 9.22%
- viability, T/C [27]: 8.28%
- viability, T/C [28]: 10.1%
- viability, T/C [29]: 10%
- viability, T/C [30]: 6.58%
- viability, T/C [31]: 7.28%
- viability, T/C [32]: 7.39%
- viability, T/C [33]: 9.03%
- viability, T/C [34]: 8.87%
- viability, T/C [35]: 8.84%
- viability, T/C [36]: 7.64%

SMILES: COc1ncnc(C2CC2)c1-c1ncc2cnn(Cc3ccc(-c4nc(C(F)(F)F)cn4C(C)C)cc3)c2n1 + CN(C)c1ccc(Nc2c3ccc(NC(=O)CCN4CCCC4)cc3nc3cc(NC(=O)CCN4CCCC4)ccc23)cc1
- IC50 (second compound 0.0316 µM): > 10000 nM
- IC50 (second compound 0.1 µM): > 10000 nM
- IC50 (second compound 0.316 µM): > 10000 nM
- IC50 (second compound 1 µM): > 10000 nM
- IC50 (second compound 3.16 µM): > 10000 nM
- IC50 (second compound 10 µM): 237 nM
- viability, T/C [1]: 93.5%
- viability, T/C [2]: 99%
- viability, T/C [3]: 95.3%
- viability, T/C [4]: 89.2%
- viability, T/C [5]: 104%
- viability, T/C [6]: 83.2%
- viability, T/C [7]: 86.9%
- viability, T/C [8]: 93%
- viability, T/C [9]: 94.1%
- viability, T/C [10]: 78.2%
- viability, T/C [11]: 100%
- viability, T/C [12]: 82.2%
- viability, T/C [13]: 77.3%
- viability, T/C [14]: 88.4%
- viability, T/C [15]: 103%
- viability, T/C [16]: 79.2%
- viability, T/C [17]: 93.2%
- viability, T/C [18]: 82.2%
- viability, T/C [19]: 66.5%
- viability, T/C [20]: 89.1%
- viability, T/C [21]: 98.7%
- viability, T/C [22]: 74%
- viability, T/C [23]: 83.4%
- viability, T/C [24]: 80.9%
- viability, T/C [25]: 52.1%
- viability, T/C [26]: 69.2%
- viability, T/C [27]: 75.3%
- viability, T/C [28]: 88.8%
- viability, T/C [29]: 75%
- viability, T/C [30]: 62.5%
- viability, T/C [31]: 50%
- viability, T/C [32]: 53%
- viability, T/C [33]: 51.5%
- viability, T/C [34]: 41.6%
- viability, T/C [35]: 37.7%
- viability, T/C [36]: 9.91%

SMILES: CC(C)n1c(=O)n(C)c2cnc3cc(F)c(-c4ccc(OCCCN5CCCCC5)nc4)cc3c21 + Cc1[nH]c2ccc(F)cc2c1-c1nc2c3cccnc3c3ncccc3c2[nH]1
- IC50 (second compound 0.0316 µM): 3520 nM
- IC50 (second compound 0.1 µM): 4100 nM
- IC50 (second compound 0.316 µM): 2080 nM
- IC50 (second compound 1 µM): < 31.6 nM
- IC50 (second compound 3.16 µM): < 31.6 nM
- IC50 (second compound 10 µM): < 31.6 nM
- viability, T/C [1]: 99.9%
- viability, T/C [2]: 84.8%
- viability, T/C [3]: 92.5%
- viability, T/C [4]: 69%
- viability, T/C [5]: 55.5%
- viability, T/C [6]: 18.6%
- viability, T/C [7]: 81.2%
- viability, T/C [8]: 91.8%
- viability, T/C [9]: 82.6%
- viability, T/C [10]: 62.3%
- viability, T/C [11]: 65.6%
- viability, T/C [12]: 20.5%
- viability, T/C [13]: 76.4%
- viability, T/C [14]: 88.8%
- viability, T/C [15]: 78%
- viability, T/C [16]: 59%
- viability, T/C [17]: 44.5%
- viability, T/C [18]: 12.2%
- viability, T/C [19]: 4%
- viability, T/C [20]: 4.91%
- viability, T/C [21]: 5.53%
- viability, T/C [22]: 4.22%
- viability, T/C [23]: 5.34%
- viability, T/C [24]: 3.26%
- viability, T/C [25]: 4.58%
- viability, T/C [26]: 4.72%
- viability, T/C [27]: 4.85%
- viability, T/C [28]: 5.73%
- viability, T/C [29]: 4.75%
- viability, T/C [30]: 1.86%
- viability, T/C [31]: 4.57%
- viability, T/C [32]: 6.24%
- viability, T/C [33]: 5.89%
- viability, T/C [34]: 5.99%
- viability, T/C [35]: 4.07%
- viability, T/C [36]: 2.35%
